Measured values: the supplement of paper PMC10307832

Columns and labels:
Assay in all cases: relative viability (nuclei count vs DMSO), 5 days (fraction); higher = more cells survive
[1] = compound: CC1=CC(=NN1)NC2=CC(=NC(=N2)/C=C/C3=CC=CC=C3)N4CCN(CC4)C + CC(=O)c1c(C)c2cnc(Nc3ccc(N4CCNCC4)cn3)nc2n(C2CCCC2)c1=O [Palbociclib] (partner 0.5 µM)
Procedure, shortened: (§1)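 For relative viability, nuclei counts in treated wells were divided by those in vehicle wells. Lung cancer cell lines had been pin-tool dosed in 1536-well plates the day after seeding and cultured for 5 days, then fixed and stained in one step (final 0.05% Triton X-100, 1% formaldehyde, 1 ug/ml Hoechst) and imaged at 4×. Doses were one drug alone or a fixed anchor-drug dose plus five library-drug doses (not always all listed) in √10 steps, and values are duplicate-plate medians.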

[2] = compound: CC1=CC(=NN1)NC2=CC(=NC(=N2)/C=C/C3=CC=CC=C3)N4CCN(CC4)C + N=C(N)NC(=N)NCCc1ccccc1 [Phenformin] (partner 250 µM)
Procedure, shortened: as §1

[3] = compound: CC1=CC(=NN1)NC2=CC(=NC(=N2)/C=C/C3=CC=CC=C3)N4CCN(CC4)C + NC(=O)Nc1cc(-c2cccc(F)c2)sc1C(=O)N[C@H]1CCCNC1 [AZD7762] (partner 0.2 µM)
Procedure, shortened: as §1

Bortezomib + Alpelisib = compound: CC(C)C[C@H](NC(=O)[C@H](Cc1ccccc1)NC(=O)c1cnccn1)B(O)O [Bortezomib] + Cc1nc(NC(=O)N2CCC[C@H]2C(N)=O)sc1-c1ccnc(C(C)(C)C(F)(F)F)c1 [Alpelisib] (partner 2 µM)
Procedure, shortened: as §1

Row | Cell Line | relative viability ([1]; first compound 0.08 µM) | relative viability ([1]; first compound 0.253 µM) | relative viability ([1]; first compound 0.8 µM) | relative viability ([1]; first compound 2.53 µM) | relative viability ([1]; first compound 8 µM) | relative viability ([2]; first compound 0.08 µM) | relative viability ([2]; first compound 0.253 µM) | relative viability ([2]; first compound 0.8 µM) | relative viability ([2]; first compound 2.53 µM) | relative viability ([2]; first compound 8 µM) | relative viability ([3]; first compound 0.08 µM) | relative viability ([3]; first compound 0.253 µM) | relative viability ([3]; first compound 0.8 µM) | relative viability ([3]; first compound 2.53 µM) | relative viability ([3]; first compound 8 µM) | relative viability (Bortezomib + Alpelisib; first compound 0.0002 µM) | relative viability (Bortezomib + Alpelisib; first compound 0.002 µM) | relative viability (Bortezomib + Alpelisib; first compound 0.006325 µM) | relative viability (Bortezomib + Alpelisib; first compound 0.02 µM) | relative viability (Bortezomib + Alpelisib; first compound 0.000632 µM)
1 | LC-2-ad | 0.552 | 0.488 | 0.413 | 0.298 | 0.18 | 0.554 | 0.571 | 0.501 | 0.251 | 0.172 | 0.778 | 0.928 | 0.676 | 0.16 | 0.12 | 0.838 | 0.898 | 0.0898 | 0.0932 | –
2 | HARA | 0.296 | 0.31 | 0.266 | 0.174 | 0.103 | 0.47 | 0.513 | 0.343 | 0.211 | 0.138 | 0.386 | 0.351 | 0.412 | 0.193 | 0.154 | 0.808 | 0.949 | 0.0583 | 0.0865 | 0.673
3 | NCI-H1975 | 0.533 | 0.754 | 0.593 | 0.285 | 0.111 | 0.409 | 0.397 | 0.388 | 0.138 | 0.118 | 0.692 | 0.872 | 0.746 | 0.429 | 0.174 | 0.696 | 0.163 | 0.127 | 0.108 | 0.615
4 | NCI-H2085 | 0.473 | 0.463 | 0.459 | 0.345 | 0.266 | 0.653 | 0.769 | 0.679 | 0.279 | 0.236 | 0.95 | 1.09 | 0.882 | 0.272 | 0.186 | 0.898 | – | 0.279 | 0.233 | 1.09
5 | NCI-H3122 | 0.207 | 0.19 | 0.224 | 0.174 | 0.165 | 0.385 | 0.384 | 0.415 | 0.285 | 0.138 | 0.963 | 0.943 | 1 | 0.944 | 0.408 | 0.796 | 0.798 | 0.59 | 0.17 | 0.718
6 | NCI-H1651 | 0.525 | 0.536 | 0.496 | 0.462 | 0.266 | 0.355 | 0.346 | 0.312 | 0.124 | 0.112 | 0.437 | 0.483 | 0.463 | 0.335 | 0.0886 | 1 | 0.748 | 0.114 | 0.0938 | 0.87
7 | NCI-H441 | 0.169 | 0.214 | 0.203 | 0.115 | 0.103 | 0.909 | 0.955 | 0.797 | 0.192 | 0.156 | 1.17 | 1.06 | 1.1 | 0.728 | 0.152 | 0.613 | 0.19 | 0.132 | 0.111 | 0.58
8 | ABC-1 | 0.668 | 0.633 | 0.934 | 0.636 | 0.227 | 0.199 | 0.192 | 0.26 | 0.234 | 0.187 | – | 1.16 | 0.795 | 0.907 | 0.175 | 1 | 0.372 | 0.233 | 0.245 | 1.08
9 | NCI-H2126 | 0.336 | 0.341 | 0.32 | 0.306 | 0.243 | 0.518 | 0.557 | 0.525 | 0.365 | 0.227 | 0.982 | 1.06 | 1.02 | 0.825 | 0.873 | 0.765 | 0.741 | 0.737 | 0.206 | 0.758
10 | RERF-LC-KJ | 1.03 | 1.15 | 0.92 | 0.647 | 0.336 | 0.417 | 0.457 | 0.372 | 0.256 | 0.245 | 0.854 | 1.05 | 0.915 | 0.651 | 0.232 | 0.8 | 0.815 | 0.477 | 0.212 | 0.782
11 | NCI-H1666 | 0.684 | 0.621 | 0.567 | 0.638 | 0.604 | 0.62 | 0.556 | 0.542 | 0.391 | 0.302 | 0.892 | 0.786 | 0.811 | 0.701 | 0.501 | 1.04 | 1.04 | 0.232 | 0.217 | 0.98
12 | PC-14 | 0.526 | 0.497 | 0.443 | 0.22 | 0.0464 | 0.628 | 0.618 | 0.567 | 0.166 | 0.064 | 0.346 | 0.446 | 0.354 | 0.28 | 0.0653 | 0.977 | 1.01 | 0.325 | 0.0573 | 0.909
13 | NCI-H1915 | 0.531 | 0.526 | 0.484 | 0.354 | 0.226 | 0.368 | 0.393 | 0.337 | 0.234 | 0.165 | 0.76 | 0.698 | 0.754 | 0.304 | 0.352 | 1.05 | 0.892 | 0.81 | 0.0434 | 1.03
14 | NCI-H2170 | 0.401 | 0.396 | 0.387 | 0.31 | 0.144 | 0.44 | 0.388 | 0.382 | 0.32 | 0.204 | 0.875 | 0.971 | 0.556 | 0.243 | 0.114 | 0.637 | 0.904 | 0.232 | 0.14 | 0.687
15 | HCC-78 | 0.469 | 0.439 | 0.546 | 0.398 | 0.338 | 0.647 | 0.704 | 0.722 | 0.381 | 0.293 | 0.628 | 0.746 | 0.868 | 0.401 | 0.249 | 0.331 | 0.258 | 0.136 | 0.148 | 0.359
16 | PC-3 [JPC-3] | 0.537 | 0.587 | 0.54 | 0.529 | 0.491 | 0.456 | 0.475 | 0.498 | 0.472 | 0.437 | 0.709 | 0.805 | 0.764 | 0.554 | 0.303 | 1.03 | 0.786 | 0.901 | 0.134 | 1.04
